Measurements as given in US20250074946A1, “USE OF SE-DR AFFINITY PEPTIDE IN PREPARING DRUG FOR TREATING RHEUMATIC DISEASE” (HEBEI FITNESS BIOTECHNOLOGY CO., LTD., priority 2021, published 2025).
Read-outs that look alike come from different tables or passages of the source. Where a SMILES comes first, the peptide text is derived from it. Where no end group is shown, it is not given here.

Legend:
[1] = test system: immune system of healthy rats; experiment: Immune indicators of SD rats after one month of administration (Example 4); assay type: in vivo, rat; settings: once a day for 4 weeks, end of administration
Description: SD rats were used to investigate the effects of the SE-DR affinity peptides on the immune indicators of the rats after continuous administration for one month. […] At the end of administration, analysis was conducted on the serum anti-FNS007 antibodies, different types of serum immunoglobulins, the serum complement, the peripheral blood T lymphocyte and the serum cytokines.

[2] = test system: immune system of healthy monkeys; experiment: Immune indicators of cynomolgus monkeys after one month of administration (Example 5); assay type: in vivo, cynomolgus monkey; settings: once a day for 4 weeks, end of administration
Text: Cynomolgus monkeys were used to investigate the effects of the SE-DR affinity peptide on the immune indicators of cynomolgus monkeys after continuous administration for one month. […] At the end of administration, the immune indicators, including the serum anti-FNS007 antibodies, the immunoglobulins of different serotypes, the serum complement, the peripheral blood T lymphocyte and the serum cytokines, were observed.

CIA rats [3] = experiment: CIA rat model: inflammation score AUC and peripheral blood T-cell subtypes (Example 3); assay type: in vivo; settings: 0.2 mmol; for Inflammation score and area under the time curve (AUC): female Lewis CIA rats, tail vein once every other day for 15 days; for Th1 (%) / Th2 (%) / Th17 (%) / Treg (%): peripheral blood, […] after end of administration, flow cytometry
Description: Collagen-induced arthritis (CIA) model was established by intradermal injection of the emulsion formulated using type II bovine collagen (CII) together with incomplete Freund's adjuvant (IFA) into the tail head of a female Lewis rat. After the model establishment, the morphological changes of rats' four paws were examined every day. […] Except for the model group, the dosage of polypeptide was all set as 0.2 mmol. A control group was also set up, in which the drug was injected into the tail vein once every other day for […]. The area under the curve (AUC) of the inflammation score was used for the efficacy analysis from the day the rats were enrolled, once every other day, until the end of administration.

PBMC = PBMC stimulation test, IL-6 in supernatant by ELISA; assay type: cell-based, human; settings: PBMC 1×10^6 cell/ml, peptide 10 μg/ml, 5 days of culture
Text: The SE-DR molecule is directly related to the pathogenesis of RA. It can present RA-related autoantigens in vivo, such as type II collagen (CII), heat shock protein 60 (Hsp60), cartilage glycoprotein (HCgp-39) and so on, and further activate autoreactive T cells, leading to the occurrence of rheumatoid arthritis. An important strategy for the treatment of RA is to use competitive inhibition to block the activation of autoreactive T cells by autoantigen peptides. […] Based on the above principles, we have designed and synthesized a series of altered peptide ligands, and screened for their affinity to SE-DR and for the activation ability on the peripheral blood T cells in RA patients. The specific steps and results are shown in Example 1 and Example 2.
3 mL ficoll was added to a 15 mL centrifuge tube, and 4 mL blood sample was then applied on the surface of ficoll. The tube was centrifuged at 400 g at 18-20° C. for 30-40 min. The upper layer of plasma was aspirated with a Pasteur pipette, and the PBMC layer (approximately 2 mL) was aspirated, and added to a 14 mL centrifuge tube previously filled with at least 3 volumes (6 mL) of PBS. The mixture was gently resuspended. The tube was centrifuged at 60-100 g for 10 min at 18-20° C. After centrifugation, the supernatant was removed with a Pasteur pipette, and the resulting cell mass was resuspended in 6-8 mL PBS and centrifuged at 18-20° C. for 10 min at 60-100 g to remove the supernatant. The cells were resuspended in an appropriate amount of 1640 complete medium and diluted to 1×10^6 cell/ml after cell counting. The diluted cell suspension was added to a 96-well plate. The positive control, allosteric peptide, was added to 100 μl cell culture to a final concentration of 10 μg/ml. The mixture was replenished to 200 μL with 1640 complete medium. After 5 days of culture, the supernatant was aspirated, centrifuged at 3000 rpm for 5 minutes, and the level of IL-6 in the supernatant was detected by ELISA.

[4] = test system: CIA mice infected with chronic hepatitis B; experiment: CIA mice infected with chronic hepatitis B (Example 8); assay type: in vivo, mouse; settings: for ALT level / Hepatitis B activation rate (Ratio of ALT > 100 U/L): at sacrifice, day 28; for Observation on the daily condition of mice: during administration; for Inflammation score and area under the time curve (AUC): peptides 50 μmol, Abatacept 100 μg, tail i.v. once every other day for 27 days
Description: Establishment of chronic hepatitis B model in mice: DBA/1 mice were injected with Raav8-1. 3 HBV (1×10^12 vg/mL) via tail vein to establish HBV chronic hepatitis B model.
DBA/1 mice infected with chronic hepatitis B were used to establish CIA model with chronic hepatitis B infection. Methods: Two days after the mice were injected with Raav8-1.3 HBV (1×10^12 vg/mL) via tail vein, the emulsion of bovine C II and CFA (containing 100 μg collagen) was intradermally injected into the tail head of the mice for immunization. After 21 days, the mice were boosted once by intraperitoneal injection of the emulsion (containing 100 μg collagen) prepared by bovine C II and IFA. Thereafter, the morphological changes of the four paws of the mice were examined every day, and the mice were randomly assigned to the treatment group at inflammation score of 1. […] Another 10 mice with latent hepatitis B infection were not subjected to model establishment and set as the control group. PBS was administrated to both the model group and the control group. The mice in each group were given the corresponding drugs by tail intravenous injection at the volume of 10 ml/kg, once every other day, for 27 consecutive days. The mice were sacrificed on day 28 after administration. The inflammation scores of the four paws of the mice in each group were evaluated during the administration. The serological indicators for virus injection and liver function of the mice were detected on the day of booster immunization (22 days after tail vein injection) and at the time of sacrifice.

[5] = test system: CIA rats with latent tuberculosis infection; settings: for Observation on the daily condition of rats: during administration; for Tuberculosis recurrence rate / Inflammation score and area under the time curve (AUC) / Culture of MTB from lungs and spleens of rats at sacrifice: peptides 0.2 mmol, adalimumab 1 mg/kg; for Tuberculosis recurrence rate: 21 days; for Inflammation score and area under the time curve (AUC): tail i.v. once every other day for 21 days; for Culture of MTB from lungs and spleens of rats at sacrifice: sacrifice on day 22
CIA rats [6] = assay type: in vivo, rat
Text: Female Lewis rats were used to establish CIA model. Methods: The rats were immunized by intradermal injection with the emulsion prepared by bovine C II and IFA at the tail head. After 7 days, the rats were boosted once with the same method. Thereafter, the morphological changes of the four paws of the rats were examined every day. […] Another 8 female Lewis rats were not subjected to model establishment and set as the control group. PBS was administrated to both the model group and the control group. […] The inflammation scores of the four paws of the rats in each group were evaluated during the administration (once every other day), and the area under the curve (AUC) of the inflammation score was calculated during the administration. During drug discontinuation, the inflammation scores of the four paws of the rats in each group were continuously evaluated (once every other day), and the rats were sacrificed on day 22 after drug discontinuation. HE staining was performed on the ankle joint for tissue injury evaluation. The specific scoring criteria were as follows: 0=normal synovial tissue; 1=synovial hyperplasia and inflammatory cell infiltration; 2=pannus formation and cartilage erosion; 3=destruction of most of the cartilage with subchondral bone erosion; 4=loss of joint integrity, ankylosis.

[7] = inflammation score AUC, FNS007 0.2 mmol, adalimumab 1 mg/kg, i.v. once every other day

Row | Molecule | CD3% [1] | CD4% [1] [%] | CD8% [1] [%] | IFN-γ [1] [pg/mL] | IL-2 [1] [pg/mL] | IL-4 [1] [pg/mL] | TNF-α [1] [pg/mL] | CD3% [2] [%] | CD4% [2] [%] | CD8% [2] [%] | IFN-γ [2] [pg/mL] | IL-2 [2] [pg/mL] | IL-4 [2] [pg/mL] | TNF-α [2] [pg/mL] | Inflammation score and area under the time curve (AUC) (CIA rats [3]) | Th1 (%) (CIA rats [3]) | Observation on the daily condition of rats [5] | Tuberculosis recurrence rate [5] [%] | Inflammation score and area under the time curve (AUC) [5] | Culture of MTB from lungs and spleens of rats at sacrifice [5] | further results
1 | YAKQATLALA [APL7] | 36.69 ± 17^ % | 18.29 ± 9.08 | 18.66 ± 8.61 | 2.33 ± 0.29 | 3.06 ± 0.97 | 2.55 ± 1.30 | 5.42 ± 1.23 | 61.83 ± 11.98 | 26.23 ± 7.31 | 23.72 ± 6.35 | 5.27 ± 0.59 | 4.24 ± 0.34 | 2.04 ± 0.19 | 2.44 ± 0.22 | 60.48 ± 37.31 | 0.17 ± 0.10 | No abnormality | 0 | 55.93 ± 29.87 | Negative | Th2 (%) (CIA rats [3]): 4.38 ± 0.81 %; Th17 (%) (CIA rats [3]): 0.92 ± 0.08%; Treg (%) (CIA rats [3]): 5.22 ± 0.77 %; IL-6 levels in the supernatant (PBMC): 3.7 ng/mL; ALT level [4]: 48.53 ± 20.09 U/L; Observation on the daily condition of mice [4]: No abnormality; Inflammation score and area under the time curve (AUC) [4]: 96.19 ± 48.25
2 | adalimumab | – | – | – | – | – | – | – | – | – | – | – | – | – | – | – | – | obvious toxicity symptoms such as piloerection and reduced activity | 60 | 50.42 ± 27.13 | 6/10 Positive | inflammation score during drug discontinuation compared with that at the time of drug discontinuation (CIA rats [6]; 21 days of observation after stopping at day 21): significantly increased; Pathological score during 21 days of drug discontinuation (CIA rats [6]; HE staining of ankle joint, score 0-4): 2.69 ± 0.80; AUC, during drug discontinuation (day 22-42) (CIA rats [6]; inflammation score AUC after stopping administration at day 21): 96.85 ± 26.51; AUC, during administration (day 1-21) (CIA rats [6]; [7]): 54.51 ± 22.72; AUC, the first week during administration (CIA rats [6]; [7]): 13.93 ± 4.81; AUC, during administration (day 1-21) (CIA rats [6]; inflammation score AUC, FNS007 0.2 mmol, adalimumab 1 mg/kg, i.v. once every other day, listed as adalimumab): 54.51; Incidence of infection in rats (CIA rats [6]; rat, in vivo): 10%; Observation on the daily state of rats (CIA rats [6]; rat, in vivo): Piloerection, epistaxis, prostration, reduced activity, etc.; Tuberculosis recurrence rate ([5]; listed as adalimumab): 60%; Inflammation score and area under the time curve (AUC) ([5]; listed as adalimumab): significantly reduce the inflammation score; Culture of MTB from lungs and spleens of rats at sacrifice ([5]; listed as adalimumab): positive in 6/10 rats
3 | MGPKGRTVIIEQSLGSPKVTK [APL21] | 38.16 ± 8.98% | 18.72 ± 5.85 | 19.06 ± 5.4 | 2.64 ± 0.37 | 3.36 ± 1.45 | 2.32 ± 1.37 | 5.25 ± 1.28 | 66.16 ± 4.34 | 23.43 ± 8.46 | 23.43 ± 8.46 | 5.03 ± 0.22 | 4.18 ± 0.41 | 1.90 ± 0.15 | 2.16 ± 0.14 | 59.44 ± 38.29 | 0.19 ± 0.08 | No abnormality | 0 | 53.06 ± 37.25 | Negative | Th2 (%) (CIA rats [3]): 4.23 ± 0.47%; Th17 (%) (CIA rats [3]): 0.98 ± 0.10%; Treg (%) (CIA rats [3]): 5.14 ± 0.90 %; IL-6 levels in the supernatant (PBMC): 4.2 ng/mL; ALT level [4]: 48.29 ± 21.24 U/L; Hepatitis B activation rate (Ratio of ALT > 100 U/L) [4]: 0%; Observation on the daily condition of mice [4]: No abnormality; Inflammation score and area under the time curve (AUC) [4]: 95.71 ± 51.88
4 | CC[C@H](C)[C@H](N)C(=O)N[C@@H](Cc1c[nH]c2ccccc12)C(=O)N[C@@H](Cc1ccc(O)cc1)C(=O)N[C@H](C(=O)N[C@@H](CO)C(=O)N[C@@H](CS)C(=O)N[C@@H](Cc1ccccc1)C(=O)NCC(=O)N[C@@H](CS)C(=O)N[C@@H](CCC(=O)O)C(=O)N[C@H](C(=O)N[C@@H](Cc1c[nH]cn1)C(=O)N[C@@H](C)C(=O)N[C@@H](CCSC)C(=O)N[C@@H](CC(C)C)C(=O)O)[C@@H](C)O)[C@@H](C)CC [APL9] (H-IWYISCFGCETHAML-OH; N-terminus and C-terminus assumed) | 36.08 ± 12.9% | 20.45 ± 8.45 | 17.10 ± 8.82 | 2.35 ± 0.27 | 3.03 ± 1.05 | 1.95 ± 0.95 | 4.79 ± 1.08 | 66.91 ± 11.93 | 28.67 ± 14.78 | 28.67 ± 14.78 | 5.01 ± 0.69 | 4.60 ± 0.55 | 2.24 ± 0.12 | 2.38 ± 0.24 | 57.39 ± 39.33 | 0.20 ± 0.05 | No abnormality | 0 | 54.49 ± 33.12 | Negative | Th2 (%) (CIA rats [3]): 4.27 ± 0.53%; Th17 (%) (CIA rats [3]): 0.95 ± 0.12 %; Treg (%) (CIA rats [3]): 5.35 ± 0.84 %; IL-6 levels in the supernatant (PBMC): 2.8 ng/mL; ALT level [4]: 47.55 ± 18.78 U/L; Hepatitis B activation rate (Ratio of ALT > 100 U/L) [4]: 0%; Observation on the daily condition of mice [4]: No abnormality; Inflammation score and area under the time curve (AUC) [4]: 97.63 ± 50.13
